Values joined by “and” are separate entries in the source; they are usually repeats but may differ in a detail not shown here. Equal values may be shown once.

The text below walks through data of the C3SDB collision cross section collection.

For this data set the following is noted: instrument: DT, stepped-field.

On to `C[C@]12CC[C@@H](O)C[C@H]1CC[C@@H]1[C@@H]2[C@@H](O)C[C@@]2(C)[C@H]1CC[C@]2(O)[C@H](O)CO` [B-Cortol], for which the “collision cross section (N2)” value ([M+Na]+) is 204.59 Å².

For `O=C1c2ccccc2-c2cccc3cccc1c23` [Benzanthrone], the “collision cross section (N2)” value ([M+H]+) amounted to 145.71 Å².

On to `c1ccc2cc3c(cc2c1)-c1cccc2cccc-3c12` [Benzo(k)fluoranthene], for which the “collision cross section (N2)” value ([M+H]+) is on record as 154.36 Å².

As for `NCCCNCCCN` [Bis(3-aminopropyl)amine], the “collision cross section (N2)” value ([M+H]+) is on record as 128.52 Å².

Turning to `Oc1cc(O)c2c(c1)O[C@H](c1ccc(O)c(O)c1)[C@@H](O)C2` [Catechin], the “collision cross section (N2)” value was 165.18 Å² ([M+H]+) and 184.42 Å² ([M+Na]+).

Take `OC[C@H]1O[C@@H](O[C@H]2[C@H](O)[C@@H](O)[C@H](O[C@H]3[C@H](O)[C@@H](O)C(O)O[C@@H]3CO)O[C@@H]2CO)[C@H](O)[C@@H](O)[C@@H]1O` (some centres undefined) [Cellotriose]: the “collision cross section (N2)” value ([M+Na]+) came out at 215.69 Å².

With `C[C@]12CCC(=O)C=C1CC[C@@H]1[C@@H]2[C@@H](O)C[C@@]2(C)[C@H]1CC[C@]2(O)C(=O)CO` [Cortisol], the “collision cross section (N2)” value reads like this: ([M+H]+) 188.88 Å²; ([M+Na]+) 213.91 Å².

As to `N[C@H]1C(O)O[C@H](CO)[C@@H](O)[C@@H]1O` (stereo partly drawn) [D-Glucosamine], the “collision cross section (N2)” value amounted to 135.59 Å² ([M+H]+) and 147.19 Å² ([M+Na]+).

As for `CC(C)(CO)[C@@H](O)C(=O)NCCC(=O)O` [D-Pantothenic Acid], the “collision cross section (N2)” value ([M+H]+) was 150.17 Å² and the “collision cross section (N2)” value ([M+Na]+) is 155.27 Å².

Regarding `O=c1c(-c2ccc(O)cc2)coc2cc(O)ccc12` [Daidzein], the “collision cross section (N2)” value runs as follows: ([M+H]+) 157.23 Å²; ([M+Na]+) 173.13 Å².

Consider `C[N+](C)(C)CCCC(=O)[O-]` [Deoxycarnitine], for which the “collision cross section (N2)” value ([M+H]+) was 130.4 Å².

As for `O=c1ccn([C@H]2C[C@H](O)[C@@H](CO)O2)c(=O)[nH]1` [Deoxyuridine], for the setting “[M+Na]+”, the “collision cross section (N2)” value amounted to 159.45 Å².

On to `COc1c(Cl)ccc(Cl)c1C(=O)O` [Dicamba], for which the “collision cross section (N2)” value ([M+Na]+) worked out at 157.21 Å².

Regarding `OCCNCCO` [Diethanolamine], the “collision cross section (N2)” value ([M+H]+) was determined as 123.33 Å².

Take `O=C(CO)COP(=O)(O)O` [Dihydroxyacetone Phosphate]: the “collision cross section (N2)” value ([M+Na]+) turned out to be 144.07 Å².

As for `CC/C=C\C/C=C\C/C=C\C/C=C\C/C=C\C/C=C\CCC(=O)O` [Docosahexaenoic Acid], the “collision cross section (N2)” value is 184.62 Å² ([M+H]+) and 185.06 Å² ([M+Na]+).

In the case of `COc1ccc(-c2coc3cc(O)ccc3c2=O)cc1` [Formononetin], for the setting “[M+Na]+”, the “collision cross section (N2)” value amounted to 176.14 Å².

In the case of `O=C(CO)[C@@H](O)[C@H](O)[C@H](O)COP(=O)(O)O` [Fructose-6-phosphate], for the setting “[M+Na]+”, the “collision cross section (N2)” value is recorded as 156.44 Å².

In the case of `O=C(O)/C=C/C(=O)O` [Fumaric Acid], the “collision cross section (N2)” value ([M+Na]+) is reported as 133.58 Å².

With `COC(=O)c1c(Cl)nn(C)c1S(=O)(=O)NC(=O)Nc1nc(OC)cc(OC)n1` [Halosulfuron-methyl], the “collision cross section (N2)” value by setting is: ([M+H]+) 196.48 Å²; ([M+Na]+) 201.41 Å².

Take `COc1ccc([C@@H]2CC(=O)c3c(O)cc(O)cc3O2)cc1O` [Hesperetin]: the “collision cross section (N2)” value runs as follows: ([M+H]+) 176.54 Å²; ([M+Na]+) 184.45 Å².

`O=C(O)CNC(=O)c1ccccc1` [Hippuric Acid]: the “collision cross section (N2)” value runs as follows: ([M+H]+) 146.82 Å²; ([M+Na]+) 154.06 Å².

`COc1cc(CC(=O)O)ccc1O` [Homovanillic Acid]: the “collision cross section (N2)” value ([M+Na]+) was 149.57 Å².

Take `CCCCC/C=C\C/C=C\CCCCCCCCCC(=O)O` [Icosadienoic Acid]: the “collision cross section (N2)” value ([M+Na]+) came to 184.05 Å².

In the case of `O=C(O)Cc1cnc[nH]1` [Imidazole-4-acetic Acid], the “collision cross section (N2)” value is, setting by setting: ([M+H]+) 128.23 Å²; ([M+Na]+) 148.03 Å².

In the case of `Cc1ccc2c(c1)[C@H](Nc1nc(N)nc(C(C)F)n1)[C@@H](C)C2` (some centres undefined) [Indaziflam], the “collision cross section (N2)” value ([M+H]+) is recorded as 169.27 Å² and the “collision cross section (N2)” value ([M+Na]+) is on record as 174.6 Å².

In the case of `O=C(O)Cc1c[nH]c2ccccc12` [Indoleacetic Acid], the “collision cross section (N2)” value ([M+H]+) was determined as 138.11 Å².

Take `COc1ccc2c(c1)c(CC(=O)O)c(C)n2C(=O)c1ccc(Cl)cc1` [Indomethacin]: the “collision cross section (N2)” value by setting is: ([M+H]+) 183.55 Å²; ([M+Na]+) 195.98 Å².

Regarding `OC[C@H]1O[C@H](OC[C@H]2O[C@H](OC[C@H]3OC(O)[C@H](O)[C@@H](O)[C@@H]3O)[C@H](O)[C@@H](O)[C@@H]2O)[C@H](O)[C@@H](O)[C@@H]1O` (some centres undefined) [Isomaltotriose], the “collision cross section (N2)” value ([M+Na]+) was determined as 210.83 Å².

Consider `O=C(O)c1cc(=O)c2ccccc2[nH]1` [Kynurenic Acid], for which the “collision cross section (N2)” value ([M+H]+) came out at 140.99 Å² and the “collision cross section (N2)” value ([M+Na]+) came out at 154.12 Å².

As for `Nc1ccccc1C(=O)CC(N)C(=O)O` (centres undefined) [Kynurenine], the “collision cross section (N2)” value ([M+H]+) stood at 151.07 Å².

`OC1OC[C@H](O)[C@H](O)[C@H]1O` (stereo partly drawn) [L-Arabinose]: the “collision cross section (N2)” value ([M+Na]+) is on record as 141.86 Å².

For `O=C1O[C@H]([C@@H](O)CO)C(O)=C1O` [L-Ascorbic Acid], under “[M+Na]+”, the “collision cross section (N2)” value amounted to 146.11 Å².

With `NCCC[C@H](N)C(=O)O` [L-Ornithine], the “collision cross section (N2)” value ([M+H]+) is 129.79 Å².

As for `C[C@@H]1OC(O)[C@H](O)[C@H](O)[C@H]1O` (stereo partly drawn) [L-Rhamnose], where the note is “[M+Na]+”, the “collision cross section (N2)” value came out at 146.3 Å².

In the case of `O=C(O)[C@@H](O)[C@@H](O)[C@@H](O)CO` [L-Ribonic Acid], the “collision cross section (N2)” value ([M+Na]+) was 143.47 Å².

Regarding `C[Se]CC[C@H](N)C(=O)O` [L-Selenomethionine], the “collision cross section (N2)” value ([M+H]+) is 137.67 Å².

As to `N[C@@H](Cc1c[nH]c2ccccc12)C(=O)O` [L-Tryptophan], where the note is “[M+H]+”, the “collision cross section (N2)” value amounted to 154.22 Å².

Take `CC(C)[C@H](N)C(=O)O` [L-Valine]: the “collision cross section (N2)” value ([M+H]+) amounted to 134.28 Å² and the “collision cross section (N2)” value ([M+Na]+) turned out to be 144.07 Å².

Turning to `CCCCCCCC/C=C\CCCCCCCC(=O)OC[C@@H](O)COP(=O)([O-])OCC[N+](C)(C)C` [LPC 18:1], the “collision cross section (N2)” value ([M+Na]+) is 237.34 Å².

`CCCCCCCCCCCCCCCC/C=C\OC[C@@H](O)COP(=O)([O-])OCC[N+](C)(C)C` [LPC(p18:0)]: the “collision cross section (N2)” value by setting is: ([M+H]+) 236.8 Å²; ([M+Na]+) 238.37 Å².

Consider `OC[C@H]1O[C@@H](O[C@@H]2[C@@H](CO)O[C@](O)(CO)[C@H]2O)[C@H](O)[C@@H](O)[C@H]1O` [Lactulose], for which, under “[M+Na]+”, the “collision cross section (N2)” value stood at 180.1 Å².

Turning to `COc1cc(-c2[o+]c3cc(O)cc(O)c3cc2O)cc(OC)c1O` [Malvidin], where the note is “[M]+”, the “collision cross section (N2)” value was found to be 178.55 Å².

With `O=c1c2cc(O)c(O)cc2oc2cc(O)c([C@@H]3O[C@H](CO)[C@@H](O)[C@H](O)[C@H]3O)c(O)c12` [Mangiferin], the “collision cross section (N2)” value ([M+H]+) is recorded as 196.62 Å².

Turning to `C=CCc1ccc(OC)c(OC)c1` [Methyleugenol], the “collision cross section (N2)” value is given as 138.94 Å² ([M+H]+) and 160.36 Å² ([M+Na]+).

With `CC(=O)N[C@H](Cc1c[nH]c2ccccc12)C(=O)O` [N-Acetyl-D-tryptophan], the “collision cross section (N2)” value came out at 155.67 Å² ([M+H]+) and 162.74 Å² ([M+Na]+).

On to `CC(=O)N[C@@H](CC(=O)O)C(=O)O` [N-Acetyl-L-aspartic Acid], for which, where the note is “[M+Na]+”, the “collision cross section (N2)” value worked out at 143.7 Å².

In the case of `CSCC[C@H](NC=O)C(=O)O` [N-Formyl-L-methionine], under “[M+Na]+”, the “collision cross section (N2)” value is recorded as 149.53 Å².

`COc1ccc2cc([C@H](C)C(=O)O)ccc2c1` [Naproxen]: the “collision cross section (N2)” value reads like this: ([M+H]+) 154.83 Å²; ([M+Na]+) 163.87 Å².

For the compound `NC(=O)c1ccc[n+]([C@@H]2O[C@H](COP(=O)([O-])O)[C@@H](O)[C@H]2O)c1` [Nicotinamide Mononucleotide], the “collision cross section (N2)” value ([M+H]+) was determined as 167.13 Å².

Take `N[C@@H](CCOC(=O)CCC(=O)O)C(=O)O` [O-Succinyl-L-homoserine]: the “collision cross section (N2)” value came out at 147.46 Å² ([M+H]+) and 147.22 Å² ([M+Na]+).

`O=C(O)c1cc(=O)[nH]c(=O)[nH]1` [Orotic Acid]: the “collision cross section (N2)” value was 138.85 Å² ([M+H]+) and 181.87 Å² ([M+Na]+).

As to `CCCCCCCC/C=C/CCCCCCCC(=O)OC[C@H](COP(=O)(O)OC[C@@H](O)CO)OC(=O)CCCCCCC/C=C/CCCCCCCC` [PG(18:1/18:1)], the “collision cross section (N2)” value reads like this: ([M+H]+) 294.47 Å² and 294.81 Å²; ([M+Na]+) 285.26 Å² and 289.31 Å².

Regarding `CCCCCCCCCCCCCCCC(=O)O` [Palmitic Acid], the “collision cross section (N2)” value ([M+Na]+) was determined as 185.22 Å².

Turning to `CCCCC[C@@H](/C=C/[C@@H]1[C@@H](C/C=C\CCCC(=O)O)[C@@H]2C[C@H]1OO2)OO` [Prostaglandin G2], under “[M+Na]+”, the “collision cross section (N2)” value is 199.3 Å².

Consider `COc1cc(O)c2c(=O)c(-c3ccc(O)cc3)coc2c1` [Prunetin], for which the “collision cross section (N2)” value is recorded as 166.26 Å² ([M+H]+) and 181.44 Å² ([M+Na]+).

In the case of `O=C(O)c1cccnc1C(=O)O` [Quinolinic Acid], under “[M+H]+”, the “collision cross section (N2)” value turned out to be 138.98 Å².

In the case of `CC/C=C\C[C@H](O)/C=C/C=C\C=C\C=C\[C@@H](O)[C@@H](O)C/C=C\CCC(=O)O` [Resolvin D1], the “collision cross section (N2)” value ([M+Na]+) turned out to be 197.87 Å².

For `Cc1cc2nc3c(=O)[nH]c(=O)nc-3n(C[C@H](O)[C@H](O)[C@H](O)COP(=O)(O)O)c2cc1C` [Riboflavin 5'-Monophosphate], the “collision cross section (N2)” value by setting is: ([M+H]+) 201.48 Å²; ([M+Na]+) 210.66 Å².

As for `Cc1cc2nc3c(=O)[nH]c(=O)nc-3n(C[C@H](O)[C@H](O)[C@H](O)CO)c2cc1C` [Riboflavin], the “collision cross section (N2)” value came out at 192.43 Å² ([M+H]+) and 199.4 Å² ([M+Na]+).
